Laboratory results as given in US11179452B2, “Antigen specific multi epitope vaccines” (priority 2006, dated 2021).
No end group written: not given here.

Legend:
Assay type in all cases: cell-based, human
[1] = tested on: ImMucin specific T-cell subpopulation; experiment: Proliferation of the ImMucin-specific T-cell subpopulation after three stimulations; conditions: one out of two experiments, four donors
Text: (§1) Thawed PBLs underwent 1st stimulation with ImMucin pulsed Autologues DC at a ratio of 20:1 and cultured for 7 days in dedicated T cell Medium. T cell medium contained RPMI medium supplemented with 10% FCS, L-Glutamine, Sodium Pyruvate, MEM-EAGLE non-essential amino-acids, HEPES and Gentamycin Sulphate (Bet-Haemek Industries, IL) as well as with 50 IU/ml of recombinant IL-7 (Cytolab IL). For the second stimulation, PBL were transferred to adherent autologues ImMucin-pulsed PBMC and cultured for additional 5 days in T cell Medium. At the end of the 5 days, medium was partial replaced with fresh medium containing 1 ug/ml of ImMucin and 50 IU/ml IL-2 for a third stimulation of 48 h at 37° C. Following the last stimulation ImMucin T cell line was checked for immune activation properties.
(§2) Proliferation analysis was conducted in three different methods. In all three methods, plates were cultured for 3-5 days under visual control and then 0.5 […]Cu/well of 3[H] (Amersham) was added for additional culture of to 18 h at 37° C. In the last step, plates were harvested and the radioactive counts were measured in a □ counter. • 1. DC indirect presentation: In the first method, 100 µl of 2×10^6 thawed PBL were placed in U-shape Bottom 96 well plate (Nunc) with RPMI medium supplemented with 5% H AB serum, L-Glutamine, Sodium Pyruvate, MEM-EAGLE non-essential amino-acids, HEPES and Gentamycin. At the next stage 100 µl of 25×10^4 peptide-pulsed DC were added to each three wells of PBL and underwent proliferation analysis as described above. • 2. PBL direct presentation: In the 2nd method, 100 µl of 2×10^6 PBL were placed in Flat Bottom 96 well plates (Corning) and stimulated with different concentrations (0.05 ug/ml-2 ug/ml) of peptides. In the next step the cells underwent proliferation analysis as described above. • 3. PBMC direct presentation: In third method PNMC were used under similar conditions as described for the second method.
(§3) For that purpose, an enriched ImMucin-specific T cell subpopulation was produced via repeated stimulation with ImMucin. The specificity of the subpopulation for ImMucin, as well as to the other VXL epitopes, was examined using proliferation assays, cytokine release assays, FACS analysis in which the percentage and type of cells enriched during the enrichment process was analyzed, and using a CTL assay against selected target cells.
(§4) For producing the specific T cell subpopulation PBL were stimulated three times for 7, 5 and 2 days with ImMucin presented via DC and PBMC. Following the 3rd stimulation the cells were evaluated against the different VXL epitopes.

PBMC = experiment: Proliferation, direct presentation of peptide via PBMC (monocytes); conditions: for PBL Index of stimulation (SI) via PBMC: naive donors, representative of 5 experiments; for Optimal dose via PBMC: optimal dose required for PBL activation, six donors; for Optimal dose via PBMC / Peak of Proliferation (Hours) via PBMC: average of 5 experiments; for Peak of Proliferation (Hours) via PBMC: visual inspection daily during 5 days
Procedure: as §2
b. Direct presentation of the peptides via PBMC i.e. monocytes
(§5) Five experiments were performed according to the protocol described in material and methods with buffy-coat enriched PBLs obtained from six different naive donors (obtained from the Israeli blood bank).

PBL [2] = experiment: Proliferation of PBL, DC indirect presentation (peptide-pulsed autologous DC); conditions: for IS (SI of the peptides as indicated in Table 7): one out of five experiments; for IS (SI of the peptides as indicated in Table 7) / Optimal dose via DC: six donors; for Optimal dose via DC: optimal dose required for PBL activation; for Optimal dose via DC / Peak of Proliferation (Hours) via DC: average of 5 experiments; for Peak of Proliferation (Hours) via DC: visual inspection by light microscopy daily during 5 days; for IS (as indicated in Table 12): two donors
Procedure: (§6) Human PBMC were separated from buffy coat samples of naive donors using Ficoll UNI-SEPmaxi tube. Separated cells were suspended in RPMI medium supplemented with 10% FCS, L-Glutamine, Sodium Pyruvate, MEM-EAGLE non-essential amino-acids, HEPES and Gentamycin Sulphate (Bet-Haemek Industries, IL) and cultivated for 4 h at 37° C. in a culture dish (Corning 150 mm×25 mm). Adherent cells were collected and cultured for 7 days in serum free DCCM-1 medium supplemented with L-Glutamine, huIL-4 (1000 IU/ml) (Cytolab IL) and GM-CSF-80 ug/ml (Cytolab IL). On day seven floating cells were collected and loaded with 50 ug/ml of examined peptide for 18 h at 37° C.
as §2
In the first set of experiments, the 21mer ImMucin, its different 9mer epitopes and other control epitopes (Table 3) were evaluated in proliferation assays with the aim of finding their optimal mode of presentation, stimulated dose as well as their peak of activity (time wise).
To evaluate the most efficient method for priming of PBLs with the different peptides, the following methods were compared:
a. In-direct presentation of the peptide via Autologues-pulsed DC
as §5

PBL [3] = experiment: ELISA of cytokine secretion by PBL stimulated once with peptide-pulsed DC
Procedure: as §6
(§7) Cytokine release was studied during the culture of stimulated T-cells. The evaluated samples were collected from the T cell culture medium on day 2, 3, and 5 and stored until use at −20° C.
(§8) […] of the selected capture antibody (e.g. anti-Hu IFN-Gamma, or anti-Hu TNF-alfa or anti IL-2) were added to each well at the final concentration of 5 μg/ml in PBS. Plates were incubated for 2 h at R.T. or over night at 4° C. Next, […] of blocking solution were added for an incubation of 2 h at R.T. […] of evaluated samples were added in duplicate into 2 wells for 2 hours at RT. After 2 h of incubation at R.T plates were washed λ4 times in washing solution. In the next step, a Biotin-conjugated detection antibody (relevant to coated antibody) was added at a final concentration of 10 μg/ml in total volume of 100 μl for 1 h at R.T. Finally, 100 μl/well working dilution (1:10000 in Blocker solution) of Streptavidin-HRP were added to each well and incubated for 1 h at R.T.
(§9) Plates were washed λ6 times with PBS-Tween (0.4%) and 100 μl/well of TMB/E Solution (CHEMICON, Catalog #ES001) was added. The plates were then exposed until blue color appeared in the wells of the positive control and no color was detected in the blank wells. To stop the color reaction, 50 μl/well of 10% of Sulfuric acid was added. The plates were counted in ELISA-Reader using a 450 nm filter.

[4] = tested on: T-Cell specific subpopulation (Clones); experiment: ELISA of cytokine secretion by the T-cell specific subpopulation (clones) stimulated with peptides; conditions: two experiments, four donors
Text: as §1, §7, §8, §9, §3, §4

PBL [5] = experiment: Proliferation of PBL, direct presentation of peptide without APC; conditions: for Optimal dose Direct no APC: optimal dose required for PBL activation, six donors; for Optimal dose Direct no APC / Peak of Proliferation (Hours) Direct no APC: average of 5 experiments; for Peak of Proliferation (Hours) Direct no APC: visual inspection daily during 5 days
Procedure: In all three methods, plates were cultured for 3-5 days under visual control and then 0.5 □Cu/well of 3[H] (Amersham) was added for additional culture of to 18 h at 37° C. […] DC indirect presentation: In the first method, 100 µl of 2×10^6 thawed PBL were placed in U-shape Bottom 96 well plate (Nunc) with RPMI medium supplemented with 5% H AB serum, L-Glutamine, Sodium Pyruvate, MEM-EAGLE non-essential amino-acids, HEPES and Gentamycin. At the next stage 100 µl of 25×10^4 peptide-pulsed DC were added to each three wells of PBL and underwent proliferation analysis as described above. • 2. PBL direct presentation: In the 2nd method, 100 µl of 2×10^6 PBL were placed in Flat Bottom 96 well plates (Corning) and stimulated with different concentrations (0.05 ug/ml-2 ug/ml) of peptides. In the next step the cells underwent proliferation analysis as described above. • 3. PBMC direct presentation: In third method PNMC were used under similar conditions as described for the second method.
Direct presentation of peptides to PBL without any APC

[6] = tested on: lymphocytes from naive donors; experiment: Proliferation assay, kinetics of lymphocyte activation as summarised in text (presentation mode not stated); conditions: summary of five experiments
Procedure: as §2
A different parameter for assessing the properties of ImMucin and the other VXL-peptide epitopes is by analyzing the time until a maximal peak of activity occurs and the optimal dose for maximal stimulation. Maximal peak of PBL activation is determined when <50% of the PBLs appear in clumps. In these experiments, the kinetic (time) in the proliferation of lymphocytes from the six naive donors stimulated at a fix dose of 0.05-1 ug/ml by ImMucin and other VXL-Peptides, was observed.

[7] = naive donors, CPM sample / CPM control, representative of 5 experiments
[8] = peptide DC ratio 16:1, one out of five experiments, six donors
[9] = naive donors, representative of 5 experiments
[10] = average of two healthy donors (Table 11)
[11] = peptide pulsed DC ratio 16:1, one out of two experiments, two donors (Table 12)

Compound | IS (Average) [1] | IS (Range) [1] | PBL Index of stimulation (SI) via PBMC (PBMC) | Optimal dose via PBMC (PBMC) | Peak of Proliferation (Hours) via PBMC (PBMC) | PBL Index of stimulation (SI) via DC (PBL [2]; [7]) | IS (SI of the peptides as indicated in Table 7) (PBL [2]) | Optimal dose via DC (PBL [2]) | Peak of Proliferation (Hours) via DC (PBL [2]) | IFN-gamma (PBL [3]; [8]) | IL-2 % of clones [4] | IL-2 Range [4] | INF-gamma % of clones [4] | INF-gamma Range [4] | TNF-Alfa % of clones [4] | TNF-Alfa Range [4] | PBL Index of stimulation (SI) Direct no APC (PBL [5]; [9]) | Optimal dose Direct no APC (PBL [5]) | Peak of Proliferation (Hours) Direct no APC (PBL [5]) | PBL Index of stimulation (SI) Direct no APC (PBL [5]; [10]) | further results
CSCC[C@H](N)C(=O)N[C@@H](CC(C)C)C(=O)N[C@@H](CC(C)C)C(=O)N[C@@H](C)C(=O)N[C@H](C(=O)N[C@@H](CC(C)C)C(=O)N[C@@H](Cc1ccc(O)cc1)C(=O)N[C@@H](CS)C(=O)N[C@@H](CC(C)C)C(=O)O)C(C)C [VXL-11, MLLAVLYCL, reference compound] | 1.14 | 1-1.28 | 1.25 | 0.05 to 1 µg/mL | 96 h | 1.65 | 1.65 | 12.5-25 × × 10e6/well | 96 h | 0 ng/mL | 0% | 0 ng/mL | 33% | 2.2 to 4.7 ng/mL | 0% | 0 ng/mL | 0 | No Influence | No proliferation |  | IL-2 (PBL [3]; [8]): 0 ng/mL
ALCRWGLLL [VXL-8, reference compound] |  |  | 1.5 | 0.05 to 1 µg/mL | 120 h | 1.75 |  | 12.5-25 × × 10e6/well | 120 h |  |  |  |  |  |  |  | 0 | No Influence | No proliferation |  | peak of proliferation / maximum stimulation [6]: 120 h
STPPVHNV [VXL-6, STPPVHNV, reference compound] | 1.125 | 1-1.25 | 1.53 | 0.05 to 1 µg/mL | 120 h | 1.76 |  | 12.5-25 × × 10e6/well | 120 h | 0 ng/mL | 0% | 0 ng/mL | 8.3% | 3.25 ng/mL | 50% | 7.56 to 11.4 ng/mL | 0 | No Influence | No proliferation | 0 | PBL Index of stimulation (SI) via DC (PBL [2]; [10]): 1.44; IL-2 (PBL [3]; [8]): 0 ng/mL; TNF-Alfa (PBL [3]; [8]): 0 ng/mL
SPFFLLLLL [VXL-5, SPFFLLLLL] | 3.575 | 2.75-4.4 | 1.8 |  | 48-72 h^ | 3.73 | 3.74 | 12.5-25 × × 10e6/well | 48-72 h^ | 0 ng/mL | 0% | 0 ng/mL | 33% | 2.75 to 5.5 ng/mL | 50% | 3.84 to 9.2 ng/mL | 0 | No Influence | No proliferation |  | TNF-Alfa (PBL [3]; [8]): 14.8 ng/mL; TNF-Alfa (PBL [3]; peptide DC ratio 16:1, one out of five experiments, six donors, listed as VXL5): highest cytokine release
MAARAVFLAL SAQLLQA (MAARAVFLALSAQLLQA; listed as Homo sapiens) [VXL-102, signal peptide vaccine derived from melanoma associated TAA BAGE] |  |  |  |  |  |  |  |  |  |  |  |  |  |  |  |  |  |  |  | 0 | IS (as indicated in Table 12) (PBL [2]): 1.9; TNF-Alfa (PBL [3]; [11]): 15.5 ng/mL
PADREAGVAA WTLKAAA (PADREAGVAAWTLKAAA) [VXL-14, reference compound] |  |  |  |  |  |  |  |  |  |  |  |  |  |  |  |  |  |  |  | 0 | PBL Index of stimulation (SI) via DC (PBL [2]; [10]): 2.94
MWATQGLAVALALSVLPGSRA (MWATQGLAVALALSVLPGSRA; listed as Homo sapiens) [VXL-101, signal peptide vaccine derived from ARMET] |  |  |  |  |  |  |  |  |  |  |  |  |  |  |  |  |  |  |  | 0 | PBL Index of stimulation (SI) via DC (PBL [2]; [10]): 2.8; PBL Index of stimulation (SI) via DC (PBL [2]; average of two healthy donors (Table 11), listed as Armet): highest SI; IS (as indicated in Table 12) (PBL [2]): 2.8; IL-2 (PBL [3]; [11]): 0 ng/mL; TNF-Alfa (PBL [3]; [11]): 10.5 ng/mL
TQSPFFLLL [VXL-4, TQSPFFLLL] | 2.665 | 2.4-2.93 | 1.45 |  | 72-96 h^ | 3.74 | 3.4 | 12.5-25 × × 10e6/well | 72-96 h^ | 0 ng/mL | 33% | 3.8 to 8.7 ng/mL | 33% | 2.6 to 8.4 ng/mL | 58% | 3.1 to 9.8 ng/mL | 0 | No Influence | No proliferation |  | IL-2 (PBL [3]; [8]): 0 ng/mL; TNF-Alfa (PBL [3]; [8]): 17.1 ng/mL; TNF-Alfa (PBL [3]; peptide DC ratio 16:1, one out of five experiments, six donors, listed as VXL4): highest cytokine release; IL-2 Range ng/ml ([4]; listed as VXL4): high; INF-gamma Range ng/ml ([4]; listed as VXL4): high
